The values that follow come from patent US7414023B2, “Peptide ligands for prostate specific antigen” (Licentia Ltd., priority 2000, dated 2008).

The target in assay [1] is T1, PSA (Homo sapiens, UniProt P07288). The assay can be described thus: Proteolytic cleavage of IGF-BP-3 by PSA, IGF-BP-3 IFMA. The following applies: PSA 5 μg/mL, 100-fold molar excess of synthetic peptide, IGF-BP-3 70 ng/mL, 16 h at 37° C.; PSA alone 30%. In kind it is biochemical. Also noted: PSA was purified from human seminal fluid as described previously (3); from tissue; host or cells: human seminal fluid. As to the method: The extent of the cleavage of the substrate was quantitated by monitoring the decrease in IGF-BP-3 immunoreactivity due to proteolytic cleavage of it. PSA (5 μg/mL) was incubated with IGF-BP-3 (70 ng/mL) for 16 h at 37° C. with 100-fold molar excess of peptides to PSA and measured for IGF-BP3 immunoreactivity by IFMA as described (33). As control, the peptide was also added to the reaction mixture containing PSA and IGF-BP3 just before starting the immunoassay to quantify the possible interference of the peptide in the IFMA for IGF-BP-3.
In the experiments, PSA (5 μg/mL) in TBS buffer, pH 7.8 alone or with 100-fold molar excess of peptide was incubated with IGF-BP-3 (70 ng/mL) for 16 h at 37° C., after which the concentration of intact IGF-BP-3 was determined by IFMA.

Assay [2] addresses T1, PSA. The experiment in a line: GST-peptide IFMA: binding of GST-peptides to PSA captured by MAb 5E4. The following applies: for binding to PSA in GST-peptide IFMA (in words): GST fusion proteins; for Maximal binding (CPS): GST-peptide fusion proteins, Eu-labelled anti GST antibody as tracer. More on the design: PSA was purified from human seminal fluid as described previously (3); from tissue; host or cells: human seminal fluid. As to the method: After washing the binding of GST-peptide was quantified by IFMA using an Eu-labelled anti GST antibody as tracer. Data represent mean values from duplicate wells ±standard error (SE).
The solid phase antibodies used in the IFMAs were coated onto microtitration wells at a concentration of 5 μg/mL in TBS for 16 h at 22° C., the solution was discarded and the wells were saturated with 10 g/L bovine serum albumin in TBS for 3 h at 22° C. The antibodies used as tracers were labeled with a Eu^3+ chelate as described previously (26). The assay buffer was 50 mM Tris-HCL, pH 7.7, 150 mM NaCl, 33.3 μM bovine serum albumin, 1 μM bovine globulin.
The binding of individual phage clones to PSA was tested by IFMA (phage IFMA). In the phage IFMA, about 30 ng of PSA was added to MAb 5E4 coated wells for 1 h. After washing (Buffer: 150 mM NaCl, 7.7 mM NaN3, 0.2 g/L Tween 20), 15 μL of phage and 200 μl assay buffer was added. After incubation for 1 h, the wells were washed and filled with 200 μl of assay buffer containing 50 ng europium-labeled anti phage monoclonal antibody recognizing the M13 coat protein of the phage. After incubation for 60 min, the wells were washed 4 times, and enhancement solution (EG&G-Wallac) was added. The fluorescence was quantified with a 1234 DELFIA Research fluorometer (EG&G-Wallac). Binding of GST-peptide to PSA was determined by an IFMA (GST-peptide IFMA) similar to the one for phage peptides except that Eu^3+-labeled antibody to GST was used. Various amounts of GST-peptide or wild type GST were added to wells containing captured PSA in 200 μL of assay buffer and incubated for 1 h. To test the effect of Zn^2+ on the binding between GST-peptide and PSA, various concentrations of Zn^2+ (1-200 μM) were added to the buffer in the incubation step of GST-peptide and PSA. In competition experiments, GST-peptide (167 nM) or wild type GST were first incubated with increasing amounts of PSA (0-333 nM) in 0.5% BSA-TBS buffer for 60 min, then added to wells containing PSA captured by MAb 5E4. After incubation for 1 h the wells were washed and Eu^3+-labeled anti GST antibody was added. After further incubation and washing the bound fluorescence was measured as described above. When assessing the binding of the GST-peptides to other proteinases, including chymotrypsin, cathepsin G, trypsin, and kallikrein, these proteinases were captured by their specific antibodies coated to the microtitration well. Recombinant hK2 was captured by MAb 5E4, which is known to bind hK2 (24). For assessing the binding of the GST-peptides with complexes of PSA, including PSA-ACT and PSA-α1-protease inhibitor (PSA-API) (28), the complexes were captured by antibodies against ACT and API, respectively. After capturing the various proteinases or PSA complexes, GST-peptide was added and binding was monitored as described above for the GST-peptide IFMA.

Bridge positions count the residues as written; N and C are the ends. Peptide text beside a SMILES is read from it.

T1 sequence (P07288 25-261): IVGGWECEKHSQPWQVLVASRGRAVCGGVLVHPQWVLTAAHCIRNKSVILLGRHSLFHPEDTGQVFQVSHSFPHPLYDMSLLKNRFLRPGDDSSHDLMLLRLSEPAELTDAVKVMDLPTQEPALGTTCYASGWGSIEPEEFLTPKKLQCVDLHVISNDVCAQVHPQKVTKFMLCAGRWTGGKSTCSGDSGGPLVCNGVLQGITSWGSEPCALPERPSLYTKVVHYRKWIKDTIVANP

CVFTSDYAFC [Peptide A-1]: in assay [1], the “cleavage of IGF-BP-3 by PSA in the presence of peptide” value was “about 70%”. For the same molecule, in assay [2], the “binding to PSA in GST-peptide IFMA (in words)” value was “less efficiently than C-4” and the “Maximal binding (CPS)” value was found to be 219000 CPS.

Consider `CC(C)C[C@@H]1NC(=O)[C@H](Cc2ccc(O)cc2)NC(=O)[C@H](CC(=O)O)NC(=O)[C@H](Cc2ccc(O)cc2)NC(=O)[C@H](CC(N)=O)NC(=O)[C@H](Cc2c[nH]cn2)NC(=O)[C@H](C)NC(=O)[C@H](Cc2ccccc2)NC(=O)[C@H](C(C)C)NC(=O)[C@@H](N)CSSC[C@@H](C(=O)O)NC(=O)[C@H](C(C)C)NC1=O` [Peptide B-2] (H-CVFAHNYDYLVC-OH; disulfide 1-12; N-terminus assumed), for which, in assay [2], the “binding to PSA in GST-peptide IFMA (in words)” value is “less efficiently than C-4” and the “Maximal binding (CPS)” value was 428000 CPS.
